These results are taken from patent publication USRE31731E, “Herbicidal 4-trifluoromethyl-4-nitrodiphenyl ethers” (priority 1978, dated 1984).

What all share (assay type): in vivo
Data set [1] concerns Dicots. The data set can be described thus: Herbicidal activity, postemergence, dicot weeds (Table II). Conditions: post-emergence, 336 h, about 2 weeks, read-out: % control (percent of plants killed); for pest or weed control at 2241.7 g/ha: 2 lb./A.; for pest or weed control at 4483.4 g/ha: 4 lb./A. The method, boiled down: (§1)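 Plants were scored roughly 2 weeks post-treatment for percent kill (average percent control). Treatment was an acetone–water spray in 50 gal/acre carrier at the listed pounds per acre, applied either immediately after sowing or to 2-week-old seedlings.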

Data set [2] has as its system Monocots. Description: Herbicidal activity, postemergence, monocot weeds (Table II). Particulars: post-emergence, 336 h, about 2 weeks, read-out: % control (percent of plants killed); for pest or weed control at 2241.7 g/ha: 2 lb./A.; for pest or weed control at 4483.4 g/ha: 4 lb./A. The method, boiled down: (§2)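 Value is mean percent kill, judged roughly 2 weeks post-treatment. Acetone/water spray at 50 gal/A, given either right after sowing in soil flats (preemergence) or once seedlings were 2 weeks old (postemergence); rates in lb/A.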

Data set [3] relates to rice. The data set can be described thus: Crop tolerance, rice. Particulars: 50% or less kill of crop at rates giving more than 50% kill of weeds. The method, then:
(§3) The following test procedure is employed. Seeds of selected crops and weeds are planted in soil in flats. For preemergence tests, the flats are treated with the test compound immediately after the planting. For postemergence tests, the seeds are allowed to germinate, and after 2 weeks the flats are treated with the test compound. The compound to be evaluated is dissolved in acetone, diluted with water, and sprayed over the flats using a carrier volume equivalent to 50 gallons per acre at the rate of application (pounds per acre, lb/A.) specified in the tables. About 2 weeks after the application of the test compound, the state of growth of the plants is observed and the phytotoxic effect of the compound is evaluated. Table II gives the average percent control achieved by the test compounds in terms of the percent of the plants which are killed by the compounds.
(§4) Following the general test procedure of Example 73, diphenyl ethers are evaluated for significant tolerance (as shown by 50% or less kill of the test crop at levels of application which give more than 50% kill of many or all of the weeds of Example 73) towards some or all of the following common agronomic crops (not all compounds tested against all crops): alfalfa, snapbeans, corn, cotton, cucumbers, peanuts, rape, rice, safflower, soybeans, tomatoes, and wheat.

Data set [4] has as its system wheat. Description: Crop tolerance, wheat. Particulars: 50% or less kill of crop at rates giving more than 50% kill of weeds. The method, then: as §3, §4
Data set [5] relates to Monocots. Description: Herbicidal activity, preemergence, monocot weeds (Table II). Particulars: pre-emergence, 336 h, about 2 weeks, read-out: % control (percent of plants killed); for pest or weed control at 2241.7 g/ha: 2 lb./A.; for pest or weed control at 4483.4 g/ha: 4 lb./A. The method, boiled down:
as §2

Data set [6] relates to soybeans. Description: Crop tolerance, soybeans. Particulars: 50% or less kill of crop at rates giving more than 50% kill of weeds. How it is done:
as §3, §4

Data set [7] deals with peanuts. Description: Crop tolerance, peanuts. Conditions: 50% or less kill of crop at rates giving more than 50% kill of weeds. How it is done: as §3, §4
Data set [8] concerns corn. The data set can be described thus: Crop tolerance, corn. Particulars: 50% or less kill of crop at rates giving more than 50% kill of weeds. The method, then:
as §3, §4

Data set [9] concerns Dicots. Description: Herbicidal activity, preemergence, dicot weeds (Table II). Conditions: pre-emergence, 336 h, about 2 weeks, read-out: % control (percent of plants killed); for pest or weed control at 2241.7 g/ha: 2 lb./A.; for pest or weed control at 4483.4 g/ha: 4 lb./A. The method, boiled down: as §1
[10] abbreviates: postemergence or on transplanted rice.

In the case of `CC(=O)Oc1cc(Oc2ccc(C(F)(F)F)cc2Cl)ccc1[N+](=O)[O-]` [Example 18, 2-Chloro-α,α,α-trifluoro-p-tolyl-3-acetoxy-4-nitrophenyl ether], the pest or weed control at 2241.7 g/ha in data set [1] was determined as 98%; in data set [2], 28%; in data set [5] it was 99%; in data set [9], 100%. Besides, the pest or weed control at 4483.4 g/ha came to 86% in data set [1], 28% in [2], 67% in data set [5] and 100% in [9]. Also, the Tolerance to rice result in data set [3] (setting [10]) is “Tolerance”. For the same compound, the Tolerance to wheat entry in [4] (postemergence) and in [4] (preemergence) was “Tolerance” throughout. Further, in data set [6] (preemergence), the Tolerance to soybeans result is reported as “Tolerance”. Further, the Tolerance to peanuts result in [7] (postemergence) is listed as “Tolerance”. Moreover, in [8] (postemergence), the Tolerance to corn result is reported as “Tolerance”.
In the case of `CCNc1cc(Oc2ccc(C(F)(F)F)cc2Cl)ccc1[N+](=O)[O-]` [Example 19, 2-Chloro-α,α,α-trifluoro-p-tolyl-3-ethylamino-4-nitrophenyl ether], the pest or weed control at 2241.7 g/ha was 97% in data set [1], 94% in [2], 77% in data set [5] and 91% in [9]. Besides, the pest or weed control at 4483.4 g/ha in data set [1] was found to be 98%; in [2], 84%; in data set [5] it was 91%; in data set [9] it was 96%. Besides, the Tolerance to rice entry in [3] (preemergence) was “Tolerance”. In addition, the Tolerance to wheat entry in data set [4] (preemergence) is “Tolerance”. The Tolerance to soybeans result in [6] (preemergence) is “Tolerance”. Also, the Tolerance to peanuts entry in data set [7] (preemergence) is reported as “Tolerance”. Besides, the Tolerance to corn result in data set [8] (postemergence) and in data set [8] (preemergence) was “Tolerance” each time.
On to `CCN(CC)c1cc(Oc2ccc(C(F)(F)F)cc2Cl)ccc1[N+](=O)[O-]` [Example 21, 2-Chloro-α,α,α-trifluoro-p-tolyl-3-diethylamino-4-nitrophenyl ether], for which the pest or weed control at 2241.7 g/ha in data set [1] is 94%; in [2] it was 90%; in data set [5] it was 79%; in [9], 90%. In addition, the pest or weed control at 4483.4 g/ha worked out at 96% in data set [1], 74% in data set [2], 91% in data set [5] and 99% in data set [9]. In addition, in data set [3] (preemergence), the Tolerance to rice entry is “Tolerance”. The Tolerance to wheat result in data set [4] (postemergence) is given as “Tolerance”. Besides, the Tolerance to soybeans entry in [6] (preemergence) is on record as “Tolerance”. Further, the Tolerance to peanuts entry in data set [7] (preemergence) was “Tolerance”. Also, the Tolerance to corn entry in data set [8] (postemergence) and in [8] (preemergence) was “Tolerance” each time.
For the compound `CCC(=O)Nc1cc(Oc2ccc(C(F)(F)F)cc2Cl)ccc1[N+](=O)[O-]` [Example 34], the pest or weed control at 2241.7 g/ha amounted to 90% in data set [1], 47% in data set [2], 83% in [5] and 85% in data set [9]. Also, the pest or weed control at 4483.4 g/ha in [1] stood at 89%; in data set [2] it was 32%; in data set [5] it was 35%; in data set [9], 52%. For the same compound, the Tolerance to rice result in data set [3] (setting [10]) and in data set [3] (preemergence) was “Tolerance” each time. Also, the Tolerance to wheat result in data set [4] (postemergence) and in data set [4] (preemergence) was “Tolerance” throughout. The Tolerance to soybeans entry in data set [6] (postemergence or layby) and in [6] (preemergence) was “Tolerance” in each case. For the same compound, the Tolerance to peanuts entry in data set [7] (postemergence) and in data set [7] (preemergence) was “Tolerance” each time. The Tolerance to corn entry in data set [8] (postemergence) and in data set [8] (preemergence) was “Tolerance” in each case.
Take `CSCCOc1cc(Oc2ccc(C(F)(F)F)cc2Cl)ccc1[N+](=O)[O-]` [Example 40]: the pest or weed control at 2241.7 g/ha was determined as 100% in [1], 81% in data set [2], 88% in [5] and 98% in [9]. The pest or weed control at 4483.4 g/ha in [1] was found to be 100%; in data set [2], 64%; in data set [5], 86%; in [9] it was 92%. The Tolerance to rice result in data set [3] (setting [10]) and in data set [3] (preemergence) was “Tolerance” throughout. Moreover, in data set [4] (preemergence), the Tolerance to wheat result is listed as “Tolerance”. In addition, in [6] (preemergence), the Tolerance to soybeans entry is given as “Tolerance”. In addition, the Tolerance to peanuts entry in [7] (postemergence) and in [7] (preemergence) was “Tolerance” throughout. Besides, the Tolerance to corn entry in data set [8] (postemergence) and in data set [8] (preemergence) was “Tolerance” in each case.
Turning to `O=C(O)c1cc(Oc2ccc(C(F)(F)F)cc2Cl)ccc1[N+](=O)[O-]` [Example 48, 2-Chloro-α,α,α-trifluoro-p-tolyl-3-carboxy-4-nitrophenyl ether], the pest or weed control at 2241.7 g/ha was 97% in data set [1], 84% in data set [2], 100% in [5] and 100% in [9]. In addition, the pest or weed control at 4483.4 g/ha in [1] is 100%; in data set [2], 75%; in data set [5] it was 99%; in data set [9], 97%. The Tolerance to rice entry in data set [3] (setting [10]) is recorded as “Tolerance”. In data set [4] (postemergence), the Tolerance to wheat entry is listed as “Tolerance”. For the same compound, the Tolerance to soybeans result in data set [6] (preemergence) was “Tolerance”. The Tolerance to peanuts entry in [7] (postemergence) and in data set [7] (preemergence) was “Tolerance” in each case.
For the compound `COC(=O)C(C)Oc1cc(Oc2ccc(C(F)(F)F)cc2Cl)ccc1[N+](=O)[O-]` (stereo not drawn) [Example 50], the pest or weed control at 2241.7 g/ha in data set [1] was 100%; in data set [2], 100%; in data set [5] it was 98%; in data set [9] it was 100%. Further, the pest or weed control at 4483.4 g/ha in [1] was found to be 100%; in data set [2] it was 97%; in data set [5], 90%; in data set [9] it was 83%. The Tolerance to wheat entry in data set [4] (preemergence) is “Tolerance”. In data set [6] (preemergence), the Tolerance to soybeans entry is recorded as “Tolerance”. Also, the Tolerance to peanuts entry in [7] (preemergence) is “Tolerance”.
Regarding `CCOc1cc(Oc2c(Cl)cc(C(F)(F)F)cc2Cl)ccc1[N+](=O)[O-]` [Example 56, 2,6-Dichloro-α,α,α-trifluoro-p-tolyl-3-ethoxy-4-nitrophenyl ether], the pest or weed control at 2241.7 g/ha in data set [1] was found to be 99%; in data set [2], 100%; in data set [5], 100%; in data set [9] it was 100%. Moreover, the pest or weed control at 4483.4 g/ha in [1] was 100%; in data set [2], 99%; in [5], 91%; in data set [9], 83%. Moreover, the Tolerance to wheat entry in data set [4] (preemergence) is listed as “Tolerance”. The Tolerance to peanuts entry in [7] (preemergence) is recorded as “Tolerance”. Further, in data set [8] (postemergence), the Tolerance to corn entry was “Tolerance”.
